# Test results reported in ChEMBL document CHEMBL1201862, “PubChem BioAssay data set” (2004).
# Activity calls are given as the source filed them. For most assays here, no stated cut-off is given here; in the data, actives have a measured EC50 and inactives only a lower limit.
# Legend:
# [1] = biological target: T1, Heat shock factor protein 1 (Mus musculus, UniProt P38532); experiment: HSF1 potentiators in luciferase reporter cells, confirmation, cell-based, NIH3T3, luminescence, dose retest (AID 435004); format: functional;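 further: stress induced by proteasome inhibitor MG132 added 30 min after compound; luciferase reporter driven by HSF1 response element in NIH3T3 cells; actives raise luminescence as potentiators of the MG132 stress response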
# T1 sequence (P38532 whole entry): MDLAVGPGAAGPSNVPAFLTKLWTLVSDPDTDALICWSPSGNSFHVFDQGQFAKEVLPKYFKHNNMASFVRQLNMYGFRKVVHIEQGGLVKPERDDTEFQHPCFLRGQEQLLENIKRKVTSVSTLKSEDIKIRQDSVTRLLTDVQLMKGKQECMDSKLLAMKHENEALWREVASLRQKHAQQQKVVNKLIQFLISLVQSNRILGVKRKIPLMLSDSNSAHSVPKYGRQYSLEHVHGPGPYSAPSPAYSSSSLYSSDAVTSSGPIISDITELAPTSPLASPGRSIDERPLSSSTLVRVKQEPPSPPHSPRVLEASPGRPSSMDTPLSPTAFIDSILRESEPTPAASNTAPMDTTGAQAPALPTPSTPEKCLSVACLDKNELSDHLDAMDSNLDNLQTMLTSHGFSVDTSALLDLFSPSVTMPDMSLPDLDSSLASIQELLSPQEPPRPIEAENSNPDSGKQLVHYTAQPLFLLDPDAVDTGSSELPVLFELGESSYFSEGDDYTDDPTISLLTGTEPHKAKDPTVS
# [2] = biological target: FAD-linked sulfhydryl oxidase ALR (Homo sapiens, UniProt P55789); experiment: inhibitors of human ALR sulfhydryl oxidase, dose response, biochemical, H2O2 detection, luminescence, cherry-pick (AID 493248)
# [3] = biological target: T2, Protein skinhead-1 (Caenorhabditis elegans, UniProt P34707); format: functional
# T2 sequence (P34707 whole entry): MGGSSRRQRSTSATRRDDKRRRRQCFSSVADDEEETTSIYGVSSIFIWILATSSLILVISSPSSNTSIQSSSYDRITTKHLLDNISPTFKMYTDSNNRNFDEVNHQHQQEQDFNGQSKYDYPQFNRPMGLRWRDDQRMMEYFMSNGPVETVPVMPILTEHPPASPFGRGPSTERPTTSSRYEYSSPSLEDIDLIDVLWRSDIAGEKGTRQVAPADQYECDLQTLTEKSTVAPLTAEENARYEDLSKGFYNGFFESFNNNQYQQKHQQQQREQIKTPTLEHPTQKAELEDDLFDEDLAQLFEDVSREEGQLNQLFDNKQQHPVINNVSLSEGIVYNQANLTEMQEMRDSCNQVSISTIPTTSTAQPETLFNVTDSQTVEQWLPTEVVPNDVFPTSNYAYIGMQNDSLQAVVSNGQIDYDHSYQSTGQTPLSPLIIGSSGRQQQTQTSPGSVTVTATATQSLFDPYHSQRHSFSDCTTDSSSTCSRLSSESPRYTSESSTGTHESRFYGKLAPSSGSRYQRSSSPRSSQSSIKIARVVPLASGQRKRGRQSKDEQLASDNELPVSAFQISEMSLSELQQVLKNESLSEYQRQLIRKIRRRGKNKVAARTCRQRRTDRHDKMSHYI
# [4] = biological target: Luciferin 4-monooxygenase (Photinus pyralis, UniProt P08659); experiment: firefly luciferase enzyme inhibitors, dose response, biochemical, luminescence (AID 1891)
# [5] = Luminescence Cell-Based Dose Confirmation HTS to Identify Inhibitors of Platelet Dense Granule Release. [Related pubchem assays: 1663 (Primary HTS), 1678 (Summary of Project)]; format: functional
# [6] = biological target: T3, Calpain-2 catalytic subunit (Sus scrofa, UniProt P43367); experiment: pig calpain II inhibitor potency, dose response, biochemical, fluorogenic peptide substrate (AID 1420); format: functional
# T3 sequence (P43367 whole entry): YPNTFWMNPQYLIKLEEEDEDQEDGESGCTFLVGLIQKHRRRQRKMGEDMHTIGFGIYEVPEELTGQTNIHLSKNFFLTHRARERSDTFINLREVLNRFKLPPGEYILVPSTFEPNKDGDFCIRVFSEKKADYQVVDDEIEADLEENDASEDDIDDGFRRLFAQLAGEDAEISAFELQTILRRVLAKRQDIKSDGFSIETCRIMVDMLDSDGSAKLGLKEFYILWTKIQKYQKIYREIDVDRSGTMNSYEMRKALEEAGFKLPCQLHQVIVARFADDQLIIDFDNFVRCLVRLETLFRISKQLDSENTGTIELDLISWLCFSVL
# [7] = biological target: T1, Heat shock factor protein 1; experiment: inhibition of MG132-induced HSE-luciferase signal, confirmation, cell-based, NIH3T3, luminescence, dose retest (AID 2382); format: functional;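 further: NIH3T3 fibroblasts with HSF1-driven luciferase reporter stressed by proteasome inhibitor MG132; luminescence from HSF1-driven luciferase expression after 8 hours of MG132 stress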
# [8] = microbe, parasite or virus in culture; format: functional; settings: Mycobacterium tuberculosis
# [9] = control 3'UTR Renilla luciferase suppression, dose response, counter-screen for Shn3 inhibitor project, cell-based, Clone20-Shn3RL, cherry-picked (AID 624133); format: functional
# [10] = HEp-2 cell cytotoxicity, dose response, cytotoxicity control for RSV inhibitor project, HTS (AID 2410); format: functional; settings: human respiratory syncytial virus
# [11] = biological target: Heat shock protein HSP 90-alpha (Homo sapiens, UniProt P07900); format: functional, organism-based
# [12] = inhibitors of intracellular T. cruzi replication, confirmation, NIH3T3 host cells, beta-gal luminescence (AID 2044); format: functional, cell-based;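 further: intracellular parasites grown in NIH/3T3 mouse fibroblasts as host cells; luminescent beta-galactosidase reporter signal from transgenic T. cruzi replicating inside host cells; inhibitors lower the luminescence signal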
# [13] = cytotoxicity toward NIH3T3 fibroblasts, dose response, counter-screen, cell-based, ATP luminescence, mouse fibroblasts (AID 2010); format: functional;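 further: cells exposed to compound for about 90 hours before reading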
# [14] = biological target: T4, Corticotropin-releasing factor receptor 2/Corticotropin-releasing factor-binding protein (Homo sapiens, UniProt P24387+Q13324); experiment: Dose Response confirmation of uHTS hits for small molecule antagonists of the CRF-binding protein and CRF-R2 receptor complex.; format: functional; settings: read-out: IC50_Mean
# T4 sequence (Q13324 whole entry): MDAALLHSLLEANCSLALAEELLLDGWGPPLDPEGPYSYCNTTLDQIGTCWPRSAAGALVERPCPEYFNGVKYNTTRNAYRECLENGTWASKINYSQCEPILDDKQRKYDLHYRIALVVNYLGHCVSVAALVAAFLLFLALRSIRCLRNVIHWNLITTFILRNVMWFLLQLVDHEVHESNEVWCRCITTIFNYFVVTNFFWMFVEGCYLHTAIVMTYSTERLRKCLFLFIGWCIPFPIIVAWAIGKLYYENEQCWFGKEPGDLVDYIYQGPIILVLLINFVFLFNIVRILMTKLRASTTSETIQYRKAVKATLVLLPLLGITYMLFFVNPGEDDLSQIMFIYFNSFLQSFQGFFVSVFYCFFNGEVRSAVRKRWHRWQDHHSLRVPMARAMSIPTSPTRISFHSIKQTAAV
# T4 sequence (P24387 whole entry): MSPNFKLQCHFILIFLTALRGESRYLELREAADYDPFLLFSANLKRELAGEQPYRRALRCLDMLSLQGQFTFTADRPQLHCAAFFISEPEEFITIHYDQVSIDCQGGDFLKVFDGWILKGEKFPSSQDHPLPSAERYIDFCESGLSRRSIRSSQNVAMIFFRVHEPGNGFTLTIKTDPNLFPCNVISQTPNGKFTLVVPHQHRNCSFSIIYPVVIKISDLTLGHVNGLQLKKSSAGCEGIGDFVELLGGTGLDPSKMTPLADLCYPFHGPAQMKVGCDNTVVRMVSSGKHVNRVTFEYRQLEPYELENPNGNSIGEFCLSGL
# [15] = biological target: T4, Corticotropin-releasing factor receptor 2/Corticotropin-releasing factor-binding protein; experiment: activators of CRF receptor 2 with binding protein – uHTS hits, confirmation (AID 602473); format: functional; settings: read-out: EC50_Mean
# [16] = Luminescence Cell-Based Dose Confirmation HTS to Identify Activators of 5'UTR Stem-Loop Driven Alpha-Synuclein mRNA Translation in H4 Neuroglioblastoma Cells. [Related pubchem assays: 1829 (Project Summary), 1814 (Primary HTS)]; format: functional
# [17] = Luminescence Cell-Based Dose Response HTS to Identify Activators of Luciferase Translation or Activity in H4 […] Cells. [Related pubchem assays: 1829 (Project Summary), 1814 (Primary HTS)]; format: functional
# [18] = tested on: H4; experiment: Luminescence Cell-Based Dose Response HTS to Identify Activators of 5'UTR Stem-Loop Driven Prion Protein mRNA Translation in H4 Neuroglioblastoma Cells. [Related pubchem assays: 1829 (Project Summary), 1814 (Primary HTS)]; format: functional; settings: Homo sapiens
# Luciferin 4-monooxygenase, sequence (P08659 whole entry): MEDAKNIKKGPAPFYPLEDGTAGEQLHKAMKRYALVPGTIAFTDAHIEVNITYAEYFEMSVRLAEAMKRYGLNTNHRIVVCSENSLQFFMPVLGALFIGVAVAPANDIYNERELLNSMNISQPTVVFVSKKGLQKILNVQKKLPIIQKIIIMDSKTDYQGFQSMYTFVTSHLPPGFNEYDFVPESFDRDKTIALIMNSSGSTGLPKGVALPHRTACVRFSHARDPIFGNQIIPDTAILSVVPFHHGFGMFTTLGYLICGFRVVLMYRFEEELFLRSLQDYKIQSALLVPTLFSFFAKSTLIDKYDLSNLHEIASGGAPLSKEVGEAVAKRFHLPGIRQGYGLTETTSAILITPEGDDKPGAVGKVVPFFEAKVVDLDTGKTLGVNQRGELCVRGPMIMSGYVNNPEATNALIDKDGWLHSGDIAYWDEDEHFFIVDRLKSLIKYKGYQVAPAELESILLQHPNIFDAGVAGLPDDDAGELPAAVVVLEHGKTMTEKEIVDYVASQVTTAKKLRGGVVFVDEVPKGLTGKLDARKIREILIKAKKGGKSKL
# FAD-linked sulfhydryl oxidase ALR, sequence (P55789 whole entry): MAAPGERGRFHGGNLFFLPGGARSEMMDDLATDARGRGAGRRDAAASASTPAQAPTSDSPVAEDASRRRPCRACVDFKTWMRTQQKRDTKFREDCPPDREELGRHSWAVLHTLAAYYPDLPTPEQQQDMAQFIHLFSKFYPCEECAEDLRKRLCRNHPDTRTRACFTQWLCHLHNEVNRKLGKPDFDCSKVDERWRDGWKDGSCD
smiles,measurement,setting,value
Cc1ccc(NC2c3ncccc3C(=O)N2C2CCCCC2)cc1 (stereo unspecified),EC50,[1],> 260 µM (inactive)
same,AC50,[2],2.07 µM (active)
Cc1ccc(C)c(NC(=O)/C(C#N)=C/c2ccc[nH]2)c1,IC50,[3],> 100 µM (inactive)
Cc1cccc(NC(=O)CN2CCC(C(=O)c3ccc4c(c3)OCCO4)CC2)c1,EC50,[4],> 112 µM (not active)
same,EC50,[5],> 112 µM (not active)
Cc1ccc(C)n1-c1ccc(C(=O)NN=C2CCCC2)cc1,EC50,[4],> 112 µM (not active)
same,EC50,[5],> 112 µM (not active)
CCOC(=O)c1c(COc2ccccc2)oc2ccc(O)cc12,EC50,[1],> 260 µM (inactive)
Cc1ccc(CNC(=O)CSc2ccsc2[N+](=O)[O-])cc1,EC50,[1],31.5 µM (active)
CCSc1nnc(NC(=O)Cc2cccc(OC)c2)s1,IC50,[6],2.28 µM (not active)
COc1cc(OC)nc(Oc2ccccc2C(=O)Oc2ccc(Cl)cc2)n1,EC50,[7],> 195 µM (not active)
same,CC50,[8],> 40 µM (active)
Cc1ccc(C(=O)NCCCNc2ccccc2[N+](=O)[O-])cc1,IC50,[6],25.2 µM (not active)
O=C(c1ccccc1Br)N1CCN(c2ccccc2)CC1,EC50,[1],> 260 µM (inactive)
COc1ccc(Cc2nnc(NC(=O)c3c(-c4ccccc4)noc3C)s2)cc1,EC50,[4],> 112 µM (not active)
same,EC50,[5],> 112 µM (not active)
NC(=S)N/N=C/c1coc2c(ccc3ccccc32)c1=O,IC50,[6],24.6 µM (not active)
COc1ccc(C2=NN(C(=O)CSC3=NN4CCCC(=O)N=C4S3)C(c3cccc(OC)c3OC)C2)cc1 (stereo unspecified),EC50,[4],> 112 µM (not active)
same,EC50,[5],> 112 µM (not active)
CCOC(=O)Cn1/c(=N/C(=O)CSC(C)=O)sc2ccccc21,EC50,[4],> 112 µM (not active)
same,EC50,[5],> 112 µM (not active)
COc1ccc(CC(=O)Nc2cccc(-c3cn4ccccc4n3)c2)cc1,EC50,[4],> 112 µM (not active)
same,EC50,[5],> 112 µM (not active)
C=CCn1c(COc2ccc(CC)cc2)nnc1SC/C(O)=C(\C#N)c1nc2ccccc2[nH]1,EC50,[1],> 260 µM (inactive)
Cc1c(NC(=O)c2c(N)n(-c3ccccc3)c3nc4ccccc4nc23)c(=O)n(-c2ccccc2)n1C,EC50,[4],> 112 µM (not active)
same,EC50,[5],> 112 µM (not active)
O=C(Nc1nccs1)C1CCN(S(=O)(=O)c2ccc(Cl)c(C(F)(F)F)c2)CC1,EC50,[4],> 112 µM (not active)
same,EC50,[5],> 112 µM (not active)
CSc1nc2sc(-c3ccccc3)cc2c(=O)n1N,EC50,[4],0.191 µM (active)
same,EC50,[5],< 0.701 µM (active)
CCCC1CC(C)(c2csc(Nc3ccc(OCC)cc3)n2)OC1=O (stereo unspecified),CC50,[8],> 40 µM (active)
Cc1ccccc1Nc1nc(N)nc(CSc2ccccc2)n1,EC50,[1],19.1 µM (active)
Cn1c(CNc2cccc(Cl)c2)nnc1SCC#N,EC50,[1],> 260 µM (inactive)
CN(CC(=O)NCc1ccc2c(c1)OCO2)S(=O)(=O)c1ccc(Br)s1,AC50,[9],28.2 µM (active)
Cc1ccc(C2=NC(C)(C)N=C2SCC(=O)Nc2ccc(Cl)cc2)cc1,CC50,[10],30.5 µM (active)
same,AC50,[11],15.1 µM (active)
CCCc1cc(-c2nnc(S)n2Cc2ccccc2)cs1,IC50,[6],22.1 µM (not active)
COc1ccc(/C=C/C(=O)NC(=S)Nc2cc3oc4ccccc4c3cc2OC)cc1,IC50,[6],> 50 µM (not active)
C=CCN(C(=O)CSc1nc2c(sc3ccccc32)c(=O)n1CCN(CC)CC)c1ccccc1,EC50,[12],0.606 µM (active)
same,CC50,[8],31.9 µM (active)
same,EC50,[13],11 µM (active)
O=C(Cn1cc(C(=O)c2ccco2)c2ccccc21)Nc1ccccc1,IC50,[6],3.26 µM (not active)
CCN(CC)c1nc(NN)nc(Nc2ccc(C)c(Cl)c2)n1,CC50,[8],31.8 µM (active)
COc1ccc(C(=N)NOC(=O)Cc2ccccc2[N+](=O)[O-])cc1,IC50,[6],10.1 µM (not active)
O=S(=O)(NC1CCCCCC1)c1ccc(Br)s1,AC50,[11],17.2 µM (active)
CC(=O)c1cccc(NC(=O)c2c(F)c(F)c(F)c(F)c2F)c1,IC50,[6],17.2 µM (not active)
COc1cc2cnc(-c3ccccc3)c(-c3ccc(C(F)(F)F)cc3)c2cc1OC,CC50,[8],> 40 µM (active)
CSC(=S)N/N=C/c1ccccc1,CC50,[8],> 40 µM (active)
NS(=O)(=O)c1ccc(NC(=O)COC(=O)C23CC4CC(CC(C4)C2)C3)cc1,IC50,[6],3.33 µM (not active)
COc1cccc(C2C([N+](=O)[O-])=C(N)Oc3c2c(=O)oc2ccccc32)c1 (stereo unspecified),EC50,[1],> 260 µM (inactive)
O=C1CCC(C(=O)Nc2ccccc2N2CCOCC2)=NN1,IC50,[14],> 47.1 µM (inactive)
same,EC50,[15],> 53 µM (inactive)
C(=N\c1nc2ccccc2[nH]1)/c1cccs1,EC50,[4],16.2 µM (active)
same,EC50,[5],> 112 µM (not active)
CCc1cc(C(=O)NNC(=O)CCl)sc1C,CC50,[8],23.8 µM (active)
Oc1ccc(N=Nc2n[nH]c(-c3ccc(Cl)cc3)n2)cc1,EC50,[16],> 120 µM (not active)
same,EC50,[17],8.25 µM (active)
same,EC50,[18],> 120 µM (not active)
same,CC50,[8],28.1 µM (active)
Cc1nc(NC(=O)c2ccccc2)sc1C1(C)CC(c2ccc(OC(F)(F)F)cc2)=NO1 (stereo unspecified),CC50,[8],> 40 µM (active)
Nc1c(C(=O)OCC2CCCO2)c2nc3ccccc3nc2n1C1CCCC1 (stereo unspecified),CC50,[8],38.3 µM (active)
